One block for each molecule: values may come before it.
Tested on: 242566-281-R-J2-PDC complex spheroid viability
Test: Anticancer human tumor 242566-281-R-J2-PDC patient-derived pancreatic carcinoma cell line growth inhibition [CLK]
Conditions: for viability, T/C: stronger effect = lower value
Excerpt: A high-throughput screen of multi-cell type tumor spheroids was designed to identify active combinations of […] and targeted small molecules. Complex spheroids include a stromal component modeled by human endothelial cells (HUVEC) and fibroblasts modeled by human mesenchymal stem cells (MSCs). The concentration ranges selected for each drug and investigational agent were based upon clinically achievable concentrations if the clinical Cmax of the agent was known.
Compounds. The drugs and investigational agents: cirtuvivint (SM08502; NSC835563), CC-671 (NSC850746), vemurafenib (NSC761431), tapotoclax (NSC804041), sotorasib (NSC818433), adagrasib (NSC831453), MRTX-1133 (NSC836407), BAY2416964 (NSC825713), copanlisib (NSC816437), inavolisib (NSC800729), abemaciclib (NSC768073), osimertinib (NSC779217), entinostat (NSC756642), eltanexor (KPT-8602, NSC794443), venetoclax (NSC766270), ceralasertib (NSC777638), bortezomib (NSC756655), olaparib (NSC753686), talazoparib (NSC767125), alisertib (NSC759677), peposertib (NSC802822), gemcitabine (NSC613327), 5-fluorouracil (NSC19893), SN-38 (NSC673596), oxaliplatin (NSC266046), paclitaxel (NSC125973), and doxorubicin (NSC123127), were obtained from the National Cancer Institute (NCI) Developmental Therapeutics Program Chemical Repository. The FDA-approved anticancer drug set is available from the Developmental Therapeutics Program at https://dtp.cancer.gov/organization/dscb/obtaining/available plates.htm. […] The stock solutions were prepared in dimethyl sulfoxide (DMSO, Sigma-Aldrich, St. Louis, MO, cat. D2650), except for the platinum complexes which were prepared in saline (Quality Biological, Gaithersburg, MD, cat. 114-055-101), at 800-fold the tested concentration and stored at -70 degrees C prior to their use. All drugs and investigational agents were tested over a range starting from a high concentration at or near the clinical Cmax and decreasing in half-log increments. If the clinical Cmax for an agent had not been determined, the highest concentration tested was 10 microM.
Cell Culture. All cells were maintained in an incubator at 37 degrees C and 5% CO2 with 95% humidity. The PDC lines were cultured according to standard operating procedures established by the NCI PDMR. Briefly, all PDCs were thawed and cultured in Matrigel-coated flasks prepared with a working solution of 1X Ham's F-12 nutrient mix, without supplementation (Invitrogen, Waltham, MA, cat. 11765054), 100 U/mL penicillin-streptomycin (Invitrogen, cat. 15140122), and 2.5% Matrigel (Corning Inc., Corning, NY, cat. 354248) for the first three passages. The 947758-054-R-J2-PDC line was cultured in 6B/Colon 1A media, which includes advanced DMEM/F-12 (Thermo Fisher Scientific, cat. 12634028), 10 mM HEPES (Thermo Fisher Scientific, cat. 15630080), 1X GlutaMAX supplement (Thermo Fisher Scientific, cat. 35050061), 0.1 mg/mL primocin (InvivoGen, cat. ant-pm-2), 10% defined fetal bovine serum, heat inactivated (HyClone Laboratories Inc., cat. SH30070.03HI), 1.25 mM N-Acetyl-L-cysteine (Sigma-Aldrich, cat. A9165), 10 mM nicotinamide (Sigma-Aldrich, cat. N0636), 1X B-27 supplement (Thermo Fisher Scientific, cat. 17504044), 1X N-2 supplement (Thermo Fisher Scientific, cat. 17502048), and 10 microM Y-27632 dihydrochloride (Tocris Bioscience, cat. 1254). The 876862-298-R-J1-PDC was cultured in 6E media, which includes all 6B/Colon 1A media components plus 50% L-WRN conditioned media (ATCC, cat. CRL-3276), 50 ng/mL recombinant human EGF recombinant protein (hEGF; Thermo Fisher Scientific, cat. PHG0311), 10 ng/mL recombinant human fibroblast growth factor 10 (hGFG-10; PeproTech, cat. 100-26), 1 ng/mL recombinant human fibroblast growth factor 2 (hFGF-2; PeproTech, cat. 100-18B), and 1 µM prostaglandin E2 (PGE2; Tocris, cat. 2296). The 227483-062-R1-J1-PDC line was cultured in Panc media, containing all 6E components except hFGF-2, with the addition of 500 nM SB-431542 (Selleckchem, cat. S1067) and 10 nM gastrin (Tocris, cat. 3006). […]

[1] = curve of first compound, second compound 0.0316 µM
[2] = curve of first compound, second compound 0.1 µM
[3] = curve of first compound, second compound 0.316 µM
[4] = curve of first compound, second compound 1 µM
[5] = curve of first compound, second compound 3.16 µM
[6] = curve of first compound, second compound 10 µM
[7] = second compound 0.0316 µM, first compound 0.0316 µM
[8] = second compound 0.0316 µM, first compound 0.1 µM
[9] = second compound 0.0316 µM, first compound 0.316 µM
[10] = second compound 0.0316 µM, first compound 1 µM
[11] = second compound 0.1 µM, first compound 0.0316 µM
[12] = second compound 0.1 µM, first compound 0.1 µM
[13] = second compound 0.1 µM, first compound 0.316 µM
[14] = second compound 0.1 µM, first compound 1 µM
[15] = second compound 0.316 µM, first compound 0.0316 µM
[16] = second compound 0.316 µM, first compound 0.1 µM
[17] = second compound 0.316 µM, first compound 0.316 µM
[18] = second compound 0.316 µM, first compound 1 µM
[19] = second compound 1 µM, first compound 0.0316 µM
[20] = second compound 1 µM, first compound 0.1 µM
[21] = second compound 1 µM, first compound 0.316 µM
[22] = second compound 1 µM, first compound 1 µM
[23] = second compound 3.16 µM, first compound 0.0316 µM
[24] = second compound 3.16 µM, first compound 0.1 µM
[25] = second compound 3.16 µM, first compound 0.316 µM
[26] = second compound 3.16 µM, first compound 1 µM
[27] = second compound 10 µM, first compound 0.0316 µM
[28] = second compound 10 µM, first compound 0.1 µM
[29] = second compound 10 µM, first compound 0.316 µM
[30] = second compound 10 µM, first compound 1 µM
[31] = second compound 0.0316 µM, first compound 0.00316 µM
[32] = second compound 0.0316 µM, first compound 0.01 µM
[33] = second compound 0.1 µM, first compound 0.00316 µM
[34] = second compound 0.1 µM, first compound 0.01 µM
[35] = second compound 0.316 µM, first compound 0.00316 µM
[36] = second compound 0.316 µM, first compound 0.01 µM
[37] = second compound 1 µM, first compound 0.00316 µM
[38] = second compound 1 µM, first compound 0.01 µM
[39] = second compound 3.16 µM, first compound 0.00316 µM
[40] = second compound 3.16 µM, first compound 0.01 µM
[41] = second compound 10 µM, first compound 0.00316 µM
[42] = second compound 10 µM, first compound 0.01 µM
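Note: spheroids exposed to compounds for 7 days before readout.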
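Throughout, for viability, T/C: 100% = DMSO vehicle control wells.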

IC50 [1]: 5930 nM
IC50 [2]: 5310 nM
IC50 [3]: 3850 nM
IC50 [4]: 2140 nM
IC50 [5]: 379 nM
IC50 [6]: < 31.6 nM
SMILES: CCCS(=O)(=O)Nc1ccc(F)c(C(=O)c2c[nH]c3ncc(-c4ccc(Cl)cc4)cc23)c1F + CNC(=O)c1ccc(Nc2nc(OC3CCCC3)c3c(-c4ccc5nc(C)oc5c4)c[nH]c3n2)c(OC)c1
viability, T/C [7]: 89.8%
viability, T/C [8]: 99.1%
viability, T/C [9]: 86.6%
viability, T/C [10]: 125%
viability, T/C (second compound 0.0316 µM, first compound 3.16 µM): 104%
viability, T/C (second compound 0.0316 µM, first compound 10 µM): 7.61%
viability, T/C [11]: 82.2%
viability, T/C [12]: 92.3%
viability, T/C [13]: 88.2%
viability, T/C [14]: 76.7%
viability, T/C (second compound 0.1 µM, first compound 3.16 µM): 87.9%
viability, T/C (second compound 0.1 µM, first compound 10 µM): 6.61%
viability, T/C [15]: 74.5%
viability, T/C [16]: 81.1%
viability, T/C [17]: 59.9%
viability, T/C [18]: 63.1%
viability, T/C (second compound 0.316 µM, first compound 3.16 µM): 61.3%
viability, T/C (second compound 0.316 µM, first compound 10 µM): 10.2%
viability, T/C [19]: 75.2%
viability, T/C [20]: 63.2%
viability, T/C [21]: 66.7%
viability, T/C [22]: 64.8%
viability, T/C (second compound 1 µM, first compound 3.16 µM): 42.6%
viability, T/C (second compound 1 µM, first compound 10 µM): 11.8%
viability, T/C [23]: 54.9%
viability, T/C [24]: 50.6%
viability, T/C [25]: 50.2%
viability, T/C [26]: 44.6%
viability, T/C (second compound 3.16 µM, first compound 3.16 µM): 26.5%
viability, T/C (second compound 3.16 µM, first compound 10 µM): 16.4%
viability, T/C [27]: 49.2%
viability, T/C [28]: 47%
viability, T/C [29]: 53%
viability, T/C [30]: 47%
viability, T/C (second compound 10 µM, first compound 3.16 µM): 30.1%
viability, T/C (second compound 10 µM, first compound 10 µM): 17.9%

SMILES: CCc1c2c(nc3ccc(O)cc13)-c1cc3c(c(=O)n1C2)COC(=O)[C@]3(O)CC + CN1CCN(c2cc(C(=O)Nc3cc4cc(-c5cnn(C)c5)ccc4cn3)ccn2)CC1
IC50 [1]: 8.95 nM
IC50 [2]: 4.12 nM
IC50 [3]: < 3.16 nM
IC50 [4]: < 3.16 nM
IC50 [5]: < 3.16 nM
IC50 [6]: < 3.16 nM
viability, T/C [31]: 75.4%
viability, T/C [32]: 47.6%
viability, T/C [7]: 17.3%
viability, T/C [8]: 8.08%
viability, T/C [9]: 4.41%
viability, T/C [10]: 2.2%
viability, T/C [33]: 57%
viability, T/C [34]: 26.9%
viability, T/C [11]: 9.57%
viability, T/C [12]: 5.51%
viability, T/C [13]: 3.73%
viability, T/C [14]: 1.87%
viability, T/C [35]: 13.3%
viability, T/C [36]: 7.58%
viability, T/C [15]: 4.52%
viability, T/C [16]: 2.86%
viability, T/C [17]: 1.79%
viability, T/C [18]: 1.15%
viability, T/C [37]: 3.62%
viability, T/C [38]: 3.2%
viability, T/C [19]: 2.53%
viability, T/C [20]: 2.3%
viability, T/C [21]: 1.39%
viability, T/C [22]: 1.39%
viability, T/C [39]: 5.73%
viability, T/C [40]: 5.04%
viability, T/C [23]: 3.5%
viability, T/C [24]: 3.24%
viability, T/C [25]: 2.82%
viability, T/C [26]: 1.82%
viability, T/C [41]: 1.17%
viability, T/C [42]: 0.88%
viability, T/C [27]: 0.45%
viability, T/C [28]: 0.5%
viability, T/C [29]: 0.49%
viability, T/C [30]: 0.31%

IC50 [1]: 19.6 nM
IC50 [2]: 12.6 nM
IC50 [3]: 5.05 nM
IC50 [4]: < 3.16 nM
IC50 [5]: < 3.16 nM
IC50 [6]: < 3.16 nM
SMILES: CCc1c2c(nc3ccc(O)cc13)-c1cc3c(c(=O)n1C2)COC(=O)[C@]3(O)CC + CNC(=O)c1ccc(Nc2nc(OC3CCCC3)c3c(-c4ccc5nc(C)oc5c4)c[nH]c3n2)c(OC)c1
viability, T/C [31]: 93.6%
viability, T/C [32]: 70.8%
viability, T/C [7]: 35.2%
viability, T/C [8]: 12.7%
viability, T/C [9]: 5.19%
viability, T/C [10]: 1.82%
viability, T/C [33]: 76%
viability, T/C [34]: 58.4%
viability, T/C [11]: 17.6%
viability, T/C [12]: 8.93%
viability, T/C [13]: 5.07%
viability, T/C [14]: 2.28%
viability, T/C [35]: 69.5%
viability, T/C [36]: 21.2%
viability, T/C [15]: 8.24%
viability, T/C [16]: 5.13%
viability, T/C [17]: 3.51%
viability, T/C [18]: 3.02%
viability, T/C [37]: 29.4%
viability, T/C [38]: 9.85%
viability, T/C [19]: 4.94%
viability, T/C [20]: 3.94%
viability, T/C [21]: 3.17%
viability, T/C [22]: 2.15%
viability, T/C [39]: 23%
viability, T/C [40]: 7.75%
viability, T/C [23]: 4.05%
viability, T/C [24]: 3.95%
viability, T/C [25]: 3.63%
viability, T/C [26]: 1.54%
viability, T/C [41]: 18.5%
viability, T/C [42]: 7.14%
viability, T/C [27]: 4.31%
viability, T/C [28]: 3.19%
viability, T/C [29]: 3.1%
viability, T/C [30]: 2.01%

IC50 (compound alone, run of 07/31/2023): 230 nM [middle of 12 runs]
SMILES: CN1CCN(c2cc(C(=O)Nc3cc4cc(-c5cnn(C)c5)ccc4cn3)ccn2)CC1
viability, T/C (compound 0.0316 µM): 101% [middle of 12 runs]
viability, T/C (compound 0.1 µM): 90.2% [middle of 12 runs]
viability, T/C (compound 1 µM): 4.87% [middle of 12 runs]
viability, T/C (compound 3.16 µM): 7.54% [middle of 12 runs]
viability, T/C (compound 10 µM): 1.65% [middle of 11 runs]

— PubChem BioAssay AID2060622 (Molecular Pharmacology Branch, DTP, NCI, 2025)
